According to US20210032344A1, “METHODS OF TREATING TUMOR” (Bristol-Myers Squibb Company, priority 2018, published 2021):

Columns and labels:
[1] = test system: stage IV or recurrent NSCLC; assay: Phase 3 trial, part 1: first-line nivolumab-based regimens vs chemotherapy; efficacy (PFS, ORR, duration of response); assay type: in vivo, human
Text: This trial is an open-label, multi-part phase 3 study of first-line nivolumab and nivolumab-based combinations in biomarker-selected NSCLC populations. […] The study continues for the co-primary endpoint of overall survival in PD-L1-selected patients.
Patients had chemotherapy-naive, stage IV or recurrent NSCLC.
Adult patients with PD-L1-histologically confirmed squamous or nonsquamous stage IV/recurrent NSCLC and Eastern Cooperative Oncology Group (ECOG) performance status (Oken M. M., et al. Am J Clin Oncol 5:649-55 (1982)) of 0 or 1 who had received no prior systemic anticancer therapy as primary therapy for advanced or metastatic disease were eligible for the study. All patients underwent imaging to screen for brain metastases. Patients with known EGFR mutations or ALK translocations sensitive to targeted therapy, an autoimmune disease, or untreated central nervous system metastases were excluded.
All treatments continued until disease progression, unacceptable toxicity, or completion per protocol (up to 2 years for immunotherapy). Crossover between treatment arms within the study was not permitted.
Part 1 of this study had two co-primary endpoints.

[2] = monotherapy, every two weeks; MTD not reached; cited from earlier work
[3] = test system: patients with stage IV or recurrent NSCLC; details: in vivo
Text: Overall response rates (ORR), duration of response, and safety were exploratory endpoints. Adverse events were graded according to the National Cancer Institute Common Terminology Criteria for Adverse Events, version 4.0.

**Q.** For nivolumab, which “median PFS” value ([1]; TMB ≥10 mutations/Mb and ≥1% PD-L1 expression) is on record?
**A.** 4.2 months

**Q.** What about the “median PFS” value ([1]; TMB ≥13 mutations/Mb and ≥1% PD-L1 expression) of the same substance?
**A.** 4.2 months

**Q.** And the “PFS hazard ratio (HR), nivolumab vs. chemotherapy” value ([1]; in vivo)?
**A.** 0.95

**Q.** And the “maximum tolerated dose (MTD)” value [2]?
**A.** > 10 mg/kg

**Q.** What about the “safety / tolerability (in words)” value [3] of the same substance?
**A.** well tolerated
